For the test, the target named is T1, human PF4 (Homo sapiens, UniProt P02776).
T1 construct: PF4 is a 70 amino acid, lysine-rich 7.8 kDa platelet-specific protein; made in house; host or cells: Escherichia coli BL21DE3 pLysS (pT7-7) and/or Drosophila S2 cells
T1 sequence (P02776 32-101): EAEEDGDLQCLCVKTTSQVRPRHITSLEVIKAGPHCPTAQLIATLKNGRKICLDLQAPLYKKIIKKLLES
Kind of test: Inhibition of PF4 tetramer formation (BS3 cross-linking, SDS-PAGE). The class given is biochemical. To be noted: for inhibition at 1 µM / inhibition at 3 µM / inhibition at 10 µM: read-out: % inhibition of PF4 tetramer formation at single concentration of inhibitor; for IC50: read-out: IC50 of PF4 tetramer formation inhibition; for inhibition at 10 µM: 10 μM inhibitor (column A). Summed up: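 Recombinant human wild-type PF4 (E. coli-expressed, heparin-purified), 10 μg/ml in PBS, incubated with compound 15 min at 37° C or 60 min at room temperature, then cross-linked with 0.2 mM BS3 for 30 min at room temperature. Reducing 12% SDS-PAGE; bands quantified as % tetramer, trimer, dimer, monomer versus compound-free control.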

The IC50 is the concentration that inhibits the measured activity by half. In the case of `CC[C@H](C)[C@H](NC(=O)OC(C)(C)C)C(=O)C1C(=O)c2ccc(S(=O)(=O)c3ccc4c(c3)C(=O)C(C(=O)[C@@H](NC(=O)OC(C)(C)C)[C@@H](C)CC)C4=O)cc2C1=O` (stereo partly drawn) [Example 279, tert-butyl N-[(2S,3S)-1-[5-({2-[(2S,3S)-2-{[(tert-butoxy)carbonyl]amino}-3-methylpentanoyl]-1,3-dioxo-2,3-dihydro-1H-inden-5-yl}sulfonyl)-1,3-dioxo-2,3-dihydro-1H-inden-2-yl]-3-methyl-1-oxopentan-2-yl]carbamate], the IC50 worked out at 3 µM. The inhibition at 1 µM (1 μM inhibitor) came out at 33%. Under “3 μM inhibitor (column A)”, the inhibition at 3 µM stood at 15%.
For `CSCC(=O)C1C(=O)c2ccc(Oc3ccc4c(c3)C(=O)C(C(=O)CSC)C4=O)cc2C1=O` (stereo not shown) [Example 280, 2-[2-(methylsulfanyl)acetyl]-5-({2-[2-(methylsulfanyl)acetyl]-1,3-dioxo-2,3-dihydro-1H-inden-5-yl}oxy)-2,3-dihydro-1H-indene-1,3-dione], the IC50 amounted to 3 µM. In addition, the inhibition at 1 µM (1 μM inhibitor) was 23%. The inhibition at 3 µM (3 μM inhibitor (column A)) was 43%.
Regarding `CSCC(=O)C1C(=O)c2ccc(C(=O)c3ccc4c(c3)C(=O)C(C(=O)CSC)C4=O)cc2C1=O` (stereo not shown) [Example 281, 2-[2-(methylsulfanyl)acetyl]-5-{2-[2-(methylsulfanyl)acetyl]-1,3-dioxo-2,3-dihydro-1H-indene-5-carbonyl}-2,3-dihydro-1H-indene-1,3-dione], the inhibition at 10 µM was 58% and the IC50 turned out to be 10 µM.
On to `CSCC(=O)C1C(=O)c2ccc(S(=O)(=O)c3ccc4c(c3)C(=O)C(C(=O)CSC)C4=O)cc2C1=O` (stereo not shown) [Example 282, 2-[2-(methylsulfanyl)acetyl]-5-({2-[2-(methylsulfanyl)acetyl]-1,3-dioxo-2,3-dihydro-1H-inden-5-yl}sulfonyl)-2,3-dihydro-1H-indene-1,3-dione], for which the IC50 is 3 µM. Under “1 μM inhibitor”, the inhibition at 1 µM amounted to 29%. Further, the inhibition at 3 µM (3 μM inhibitor (column A)) stood at 45%.
Take `CSCCCC(=O)C1C(=O)c2ccc(Oc3ccc4c(c3)C(=O)C(C(=O)CCCSC)C4=O)cc2C1=O` (stereo not shown) [Example 283, 2-[4-(methylsulfanyl)butanoyl]-5-({2-[4-(methylsulfanyl)butanoyl]-1,3-dioxo-2,3-dihydro-1H-inden-5-yl}oxy)-2,3-dihydro-1H-indene-1,3-dione]: the inhibition at 10 µM was found to be 86% and the IC50 was determined as 10 µM.
Take `CSCCCC(=O)C1C(=O)c2ccc(C(=O)c3ccc4c(c3)C(=O)C(C(=O)CCCSC)C4=O)cc2C1=O` (stereo not shown) [Example 284, 2-[4-(methylsulfanyl)butanoyl]-5-{2-[4-(methylsulfanyl)butanoyl]-1,3-dioxo-2,3-dihydro-1H-indene-5-carbonyl}-2,3-dihydro-1H-indene-1,3-dione]: the inhibition at 10 µM stood at 81% and the IC50 was 10 µM.
As for `CSCCCC(=O)C1C(=O)c2ccc(S(=O)(=O)c3ccc4c(c3)C(=O)C(C(=O)CCCSC)C4=O)cc2C1=O` (stereo not shown) [Example 285, 2-[4-(methylsulfanyl)butanoyl]-5-({2-[4-(methylsulfanyl)butanoyl]-1,3-dioxo-2,3-dihydro-1H-inden-5-yl}sulfonyl)-2,3-dihydro-1H-indene-1,3-dione], the IC50 turned out to be 3 µM. In addition, under “1 μM inhibitor”, the inhibition at 1 µM was found to be 33%. For the same compound, the inhibition at 3 µM (3 μM inhibitor (column A)) came out at 49%.
As to `O=C1c2ccc(Oc3ccc4c(c3)C(=O)C(C(=O)C3CCCCC3)C4=O)cc2C(=O)C1C(=O)C1CCCCC1` (stereo not shown) [Example 286, 2-cyclohexanecarbonyl-5-[(2-cyclohexanecarbonyl-1,3-dioxo-2,3-dihydro-1H-inden-5-yl)oxy]-2,3-dihydro-1H-indene-1,3-dione], the concentration for half-maximal inhibition (IC50) was 3 µM. Also, the inhibition at 1 µM (1 μM inhibitor) is 37%. In addition, the inhibition at 3 µM (3 μM inhibitor (column A)) was found to be 47%.
Take `O=C(c1ccc2c(c1)C(=O)C(C(=O)C1CCCCC1)C2=O)c1ccc2c(c1)C(=O)C(C(=O)C1CCCCC1)C2=O` (stereo not shown) [Example 287, 2-cyclohexanecarbonyl-5-(2-cyclohexanecarbonyl-1,3-dioxo-2,3-dihydro-1H-indene-5-carbonyl)-2,3-dihydro-1H-indene-1,3-dione]: the IC50 amounted to 3 µM. The inhibition at 1 µM (1 μM inhibitor) came to 5%. Moreover, the inhibition at 3 µM (3 μM inhibitor (column A)) came out at 31%.
The corresponding values for `O=C1c2ccc(S(=O)(=O)c3ccc4c(c3)C(=O)C(C(=O)C3CCCCC3)C4=O)cc2C(=O)C1C(=O)C1CCCCC1` (stereo not shown) [Example 288, 2-cyclohexanecarbonyl-5-[(2-cyclohexanecarbonyl-1,3-dioxo-2,3-dihydro-1H-inden-5-yl)sulfonyl]-2,3-dihydro-1H-indene-1,3-dione] are 3 µM, 10% and 15%.
Regarding `O=C(c1ccc2c(c1)C(=O)C(C(=O)CSc1ccncc1)C2=O)c1ccc2c(c1)C(=O)C(C(=O)CSc1ccncc1)C2=O` (stereo not shown) [Example 289, 5-{1,3-dioxo-2-[2-(pyridin-4-ylsulfanyl)acetyl]-2,3-dihydro-1H-indene-5-carbonyl}-2-[2-(pyridin-4-ylsulfanyl)acetyl]-2,3-dihydro-1H-indene-1,3-dione], where the note is “1 μM inhibitor”, the inhibition at 1 µM turned out to be 27%. Moreover, the inhibition at 3 µM (3 μM inhibitor (column A)) is 52%.
Take `O=C(CSc1ccncc1)C1C(=O)c2ccc(S(=O)(=O)c3ccc4c(c3)C(=O)C(C(=O)CSc3ccncc3)C4=O)cc2C1=O` (stereo not shown) [Example 290, 5-({1,3-dioxo-2-[2-(pyridin-4-ylsulfanyl)acetyl]-2,3-dihydro-1H-inden-5-yl}sulfonyl)-2-[2-(pyridin-4-ylsulfanyl)acetyl]-2,3-dihydro-1H-indene-1,3-dione]: the inhibition at 1 µM (1 μM inhibitor) was 39%. The inhibition at 3 µM (3 μM inhibitor (column A)) is 51%.
In the case of `COCCOCCNC(=O)C1C(=O)c2ccc(Oc3ccc4c(c3)C(=O)C(C(=O)NCCOCCOC)C4=O)cc2C1=O` (stereo not shown) [Example 291, 5-({2-[hydroxy({[2-(2-methoxyethoxy)ethyl]amino})methyl]-1,3-dioxo-2,3-dihydro-1H-inden-5-yl}oxy)-N-[2-(2-methoxyethoxy)ethyl]-1,3-dioxo-2,3-dihydro-1H-indene-2-carboxamide], the IC50 came out at 1.29 µM. Further, the inhibition at 1 µM (1 μM inhibitor) was 69%. In addition, the inhibition at 3 µM (3 μM inhibitor (column A)) came to 100%.
Turning to `O=C(NC1CCC1)C1C(=O)c2ccc(S(=O)(=O)c3ccc4c(c3)C(=O)C(C(=O)NC3CCC3)C4=O)cc2C1=O` (stereo not shown) [Example 292, N-cyclobutyl-5-{[2-(cyclobutylcarbamoyl)-1,3-dioxo-2,3-dihydro-1H-inden-5-yl]sulfonyl}-1,3-dioxo-2,3-dihydro-1H-indene-2-carboxamide], the IC50 stood at 1.26 µM. In addition, under “1 μM inhibitor”, the inhibition at 1 µM is 47%. In addition, the inhibition at 3 µM (3 μM inhibitor (column A)) was 100%.
For `O=C(CN1CCCC1=O)C1C(=O)c2ccc(C#Cc3ccc4c(c3)C(=O)C(C(=O)CN3CCCC3=O)C4=O)cc2C1=O` (stereo not shown) [Example 293, 5-(2-{1,3-dioxo-2-[2-(2-oxopyrrolidin-1-yl)acetyl]-2,3-dihydro-1H-inden-5-yl}ethynyl)-2-[2-(2-oxopyrrolidin-1-yl)acetyl]-2,3-dihydro-1H-indene-1,3-dione], under “1 μM inhibitor”, the inhibition at 1 µM was 28%. For the same compound, the inhibition at 3 µM (3 μM inhibitor (column A)) turned out to be 43%.
As to `O=C(NC1CCCC1)C1C(=O)c2ccc(S(=O)(=O)c3ccc4c(c3)C(=O)C(C(=O)NC3CCCC3)C4=O)cc2C1=O` (stereo not shown) [Example 294, N-cyclopentyl-5-{[2-(cyclopentylcarbamoyl)-1,3-dioxo-2,3-dihydro-1H-inden-5-yl]sulfonyl}-1,3-dioxo-2,3-dihydro-1H-indene-2-carboxamide], the IC50 stood at 1.97 µM. Besides, where the note is “1 μM inhibitor”, the inhibition at 1 µM came out at 45%. Further, the inhibition at 3 µM (3 μM inhibitor (column A)) was found to be 88%.
Regarding `COCCOCCNC(=O)C1C(=O)c2ccc(S(=O)(=O)c3ccc4c(c3)C(=O)C(C(=O)NCCOCCOC)C4=O)cc2C1=O` (stereo not shown) [Example 295, N-[2-(2-methoxyethoxy)ethyl]-5-[(2-{[2-(2-methoxyethoxy)ethyl]carbamoyl}-1,3-dioxo-2,3-dihydro-1H-inden-5-yl)sulfonyl]-1,3-dioxo-2,3-dihydro-1H-indene-2-carboxamide], the IC50 is 1.1 µM. In addition, the inhibition at 1 µM (1 μM inhibitor) is 29%. Also, the inhibition at 3 µM (3 μM inhibitor (column A)) came out at 100%.
`O=C1c2ccc(S(=O)(=O)c3ccc4c(c3)C(=O)C(C(=O)C3CCC3)C4=O)cc2C(=O)C1C(=O)C1CCC1` (stereo not shown) [Example 296, 2-cyclobutanecarbonyl-5-[(2-cyclobutanecarbonyl-1,3-dioxo-2,3-dihydro-1H-inden-5-yl)sulfonyl]-2,3-dihydro-1H-indene-1,3-dione]: the inhibition at 1 µM (1 μM inhibitor) turned out to be 22%. In addition, where the note is “3 μM inhibitor (column A)”, the inhibition at 3 µM was found to be 36%.
As to `O=C1c2ccc(Oc3ccc4c(c3)C(=O)C(C(=O)C3CCC3)C4=O)cc2C(=O)C1C(=O)C1CCC1` (stereo not shown) [Example 297, 2-cyclobutanecarbonyl-5-[(2-cyclobutanecarbonyl-1,3-dioxo-2,3-dihydro-1H-inden-5-yl)oxy]-2,3-dihydro-1H-indene-1,3-dione], the IC50 was 1.74 µM. Besides, the inhibition at 1 µM (1 μM inhibitor) turned out to be 38%. In addition, the inhibition at 3 µM (3 μM inhibitor (column A)) was 100%.
In the case of `CC(=O)NCC(=O)C1C(=O)c2ccc(Oc3ccc4c(c3)C(=O)C(C(=O)CNC(C)=O)C4=O)cc2C1=O` (stereo not shown) [Example 298, N-[2-(5-{[2-(2-acetamidoacetyl)-1,3-dioxo-2,3-dihydro-1H-inden-5-yl]oxy}-1,3-dioxo-2,3-dihydro-1H-inden-2-yl)-2-oxoethyl]acetamide], the “% inhibition of PF4 tetramer formation at single concentration of inhibitor” value was 32% (1 μM inhibitor, 1 µM) and 60% (3 μM inhibitor (column A), 3 µM).

Source of the values: patent US20250281424A1 (New York Blood Center, Inc, priority 2020, published 2025).
